Source: patent US20080188530A1 (priority 2004, published 2008)
Where two headings read alike, the source gives them in different places.

Key:
[1] = test system: Pyrenophora [syn. Drechslera] teres; experiment: Activity against net blotch of barley caused by Pyrenophora teres (protective spray on potted barley seedlings); type: in vivo; conditions: barley cv. Igri, inoculated 5 days after spraying, rated after 6 days, efficacy in % of untreated control (Abbot)
Phytophthora infestans = type: in vivo; conditions: tomato plants, infected 5 days after spraying, rated after 6 days, efficacy in % of untreated control (Abbot)

Compound	Observed efficacy (%) ([1]; 16 ppm)	Observed efficacy (%) (Phytophthora infestans; 16 ppm)	Observed efficacy (%) (Phytophthora infestans; 63 ppm)	Observed efficacy (%) ([1]; 63 ppm)
COCC(=O)N(c1c(C)cccc1C)C(C)C(=O)OC (racemic) [metalaxyl, methyl N-(methoxyacetyl)-N-(2,6-xylyl)-DL-alaninate]	0	–	–	–
CO/C=C(/C(=O)OC)c1ccccc1CO/N=C(C)/C=C/c1ccc(Cl)cc1 [enestroburin, methyl 2-{2-[3-(4-chlorophenyl)-1-methylallylideneaminooxymethyl]phenyl}-3-methoxyacrylate]	44	0	11	56
O=C(Nc1ccccc1-c1ccc(Cl)cc1)c1cccnc1Cl [boscalid, 2-chloro-N-(4′-chlorobiphenyl-2-yl)nicotinamide]	–	0	–	–
